Laboratory results reported in PubChem BioAssay AID652041 (Broad Institute, 2013).
Where “and” joins values, the source holds several entries; their conditions need not be identical. Identical values can stand only once.

Tested on: P. falciparum HB3 in RBCs, SYBR Green DNA fluorescence
Assay: antimalarial activity against intraerythrocytic HB3 parasites – HB3 strain, red blood cells, SYBR Green, cherry-picked, dose response (AID 652041);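 further: parasites exposed to compound for 72 hours before the DNA read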

| Compound | AC35 |
| --- | --- |
| CCCCc1ccc(-n2c(Cc3cccs3)n[nH]c2=S)cc1 | 29.2 µM |
| Cc1c(C(=O)O)cccc1-c1ccc(/C=N/Nc2ccc(Br)cc2)o1 | 21.3 µM |
| Oc1ccc(/C=N/Nc2ccc(C(F)(F)F)cn2)c(O)c1 | 6.46 µM |
| CC(C)N1CCN(c2ccc(OC[C@H]3CO[C@](Cn4cncn4)(c4ccc(Cl)cc4Cl)O3)cc2)CC1 | 7.37 µM |
| Cc1ccc(NS(=O)(=O)c2ccc(N3CCN(c4ccc(O)cc4)CC3)c([N+](=O)[O-])c2)c(C)c1 | 10.4 µM |
| O=c1c2ccccc2c(-c2ccc(O)cc2)nn1-c1cccc(C(F)(F)F)c1 | 3.52 µM |
| Cc1ccc(-n2nnnc2SCC(=O)N2CCc3ccccc3C2)c(C)c1 | 28.7 µM |
| Cc1cccc(Oc2nc(-c3ccccn3)nc3ccccc23)c1 | 6.06 µM |
| COc1cnc(-c2ccccn2)nc1N(C)c1ccccc1 | 3.46 µM |
| CC(C)(C)C(=O)C(Oc1ccc(Cl)cc1)n1cncn1 (stereo not drawn) | 36.1 µM |
| CCCCCCn1c(=O)c(C(=O)Nc2ncccc2C)c(O)c2ccccc21 | 4.29 µM |
| CC(=O)NC(c1cccc([N+](=O)[O-])c1)c1ccc2cccnc2c1O (stereo not drawn) | 1.77 µM |
| Oc1c(I)cc(Cl)c2cccnc12 | 1.67 µM |
| Oc1cccc2ccc(Nc3ccccn3)nc12 | 0.321 µM |
| O=C(O)CSc1nc(-c2ccc(Cl)cc2)nc2c1oc1ccccc12 | 28.6 µM |
| O=C(Nc1nc(-c2ccccn2)cs1)c1ccc(Br)s1 | 0.662 µM |
| O=C(Nc1nnc(-c2ccccc2)o1)c1ccc(Cl)cc1 | 10.7 µM |
| Cc1nc2ccc(C(C(F)(F)F)(C(F)(F)F)C(F)(F)F)cc2[nH]1 | 11.2 µM |
| O=C(Nc1nnc(SCc2ccc(F)cc2)s1)c1ccccn1 | 1.93 µM |
| Cc1cc(/C=C2\SC(=S)N(C)C2=O)c(C)n1-c1ccc(O)cc1 | 9.39 µM |
| FC(F)(F)c1nc(SCc2ccc(Cl)cc2Cl)n[nH]1 | 40 µM |
| Cc1ccoc1C(=O)Nc1cccc(Oc2ccccc2)c1 | 6.15 µM |
| CCCCCCCc1ccc(-c2ccc(O)cc2)nc1 | 4.88 µM |
| Clc1ccccc1C(c1ccccc1)(c1ccccc1)n1ccnc1 | 0.645 µM |
| CCc1ccc(S(=O)(=O)N(C(=O)c2ccncc2)c2ccc(OC(=O)c3ccncc3)cc2)cc1 | 41.7 µM |

| Compound | AC35 |
| --- | --- |
| Clc1ccc(COC(Cn2ccnc2)c2ccc(Cl)cc2Cl)c(Cl)c1 (stereo not drawn) | 1.57 µM and 1.95 µM |
| CC1(C(=O)OCC(=O)Nc2ccc3ccccc3c2)CC1(Cl)Cl (stereo not drawn) | 31.2 µM |
| O=C(c1ccccc1)c1ccc(Cn2cc(-c3ccccc3)nn2)cc1 | 40.3 µM |
| COc1ccc2oc(=O)c(-c3csc(Nc4cccc(O)c4)n3)cc2c1 | 12 µM |
| C(=C1c2ccccc2-c2ccccc21)c1ccncc1 | 18.2 µM |
| COC(=O)C1=NN(C(=O)c2cccc(Br)c2)C(O)(c2ccc(Cl)cc2)C1 (stereo not drawn) | 31 µM |
| O=C1OCC(CO)(CO)N=C1NNc1ccc(Cl)c(Cl)c1 | 19.7 µM |
| Cc1cc(-c2ccccc2)n(-c2cc(N/N=C/c3ccccc3O)ncn2)n1 | 3.85 µM |
| Cc1cc(Cl)ccc1C(=O)C1CCCN(C(=O)c2cncs2)C1 (stereo not drawn) | 33.5 µM |
| Oc1ccc(Br)cc1/C=N/Nc1ccccn1 | 1.61 µM |
| O=C(COc1ccccc1F)Nc1nc(-c2ccccn2)cs1 | 12 µM |
| Clc1nc(-c2ccccn2)nc2scc(-c3ccccc3)c12 | 2.39 µM |
| Cc1ccc(NC(=O)CN(C)C(=O)c2cccnc2Nc2cccc(C(F)(F)F)c2)cc1 | 10.5 µM |
| Oc1ccc(N=Nc2ccc3c(c2)OCCO3)c2cccnc12 | 0.854 µM |
| O=C(CCCSc1ccccc1)Nc1nc(-c2ccccn2)cs1 | 8.91 µM |
| O/N=C(\c1ccc(Cl)cc1)c1cc2ccccc2o1 | 16.4 µM |
| O=C(CSc1ccc(-c2ccccn2)nn1)c1ccccc1 | 28 µM |
| O=C(COc1ccc([N+](=O)[O-])cc1)Nc1nc(-c2ccccn2)cs1 | 6.38 µM |
| CNc1cc(CSC)nc(SCc2ccc(Cl)cc2Cl)n1 | 22.3 µM |
| O=[N+]([O-])c1ccc(Sc2cccc[n+]2[O-])c2nonc12 | 1.41 µM |
| Cc1cccc(NC(=S)NC(C)CCc2ccccc2)c1 (stereo not drawn) | 12.7 µM |
| COC(=O)c1cccc2c1-c1ccccc1/C2=N/O | 16.5 µM |
| C[n+]1c2cc(N)ccc2cc2ccc(N)cc21 | 0.0524 µM |
| C=C1C(=O)C23CCC4C(C)(C(=O)OC)CCCC4(C)C2CCC1(O)C3 (stereo not drawn) | 1.72 µM |
| O=C(c1ccc(-c2ccccc2)cc1)C1CCCN(C(=O)c2cncs2)C1 (stereo not drawn) | 7.38 µM |

| Compound | AC35 |
| --- | --- |
| CCCCCCCCCCOC(=O)Cn1c(COc2ccccc2OC)[n+](C)c2ccccc21 | 0.346 µM |
| O=C(O)c1ccccc1NC(c1ccccc1)c1ccc2cccnc2c1O (stereo not drawn) | 6.46 µM |
| COc1ccc(N=N/C(=C\O)C(=O)c2cccs2)cc1 | 7.99 µM |
| COc1cnc(-c2ccccn2)nc1Sc1ccc(C)cc1 | 3.64 µM |
| CCCCCCSc1ccc(-c2nc3ccccn3c2NCCCC)cc1 | 6.94 µM |
| COc1cccc(/C=N/Nc2ncnc3scc(-c4ccccc4)c23)c1O | 1.7 µM |
| CN(C)c1nc(-c2ccccn2)nnc1-c1ccccc1 | 2.54 µM |
| FC(F)(F)c1cccc(N2CCc3cn[nH]c32)c1 | 28.4 µM |
| COc1ccc(-c2oc3ccccc3c2C#Cc2cncn2C)cc1 | 0.87 µM |
| Cc1ccccc1C(=O)NNC(=S)NC(=O)c1ccc(Cl)cc1Cl | 34.3 µM |
| Cc1cc(C)c(C(=O)CC(=O)c2cccnc2)c(C)c1 | 8.29 µM |
| CCOC(=O)N1C(=O)C2(CCCCC2)N(c2ccccc2Cl)C1=S | 30.5 µM |
| Cc1cccc2sc(NNC(=O)c3ccc(S(=O)(=O)N4CCCC(C)C4)cc3)nc12 (stereo not drawn) | 4.44 µM |
| C=CCc1ccc(O)c(-c2ccc(O)c(CC=C)c2)c1 | 14.7 µM |
| Cc1csc(NC(=O)C(C)Oc2ccc(Cl)cc2C)n1 (stereo not drawn) | 23 µM |
| CCCCCCC(Cl)(Cn1ccnc1)c1ccccc1 (stereo not drawn) | 3.48 µM |
| c1ccc(C(=NNc2nc3ccccc3s2)c2ccccn2)cc1 | 2.22 µM |
| O=CC1=C(c2ccccc2)Oc2ccccc2O1 | 7.46 µM |
| Oc1c(C(Nc2cccc(C(F)(F)F)c2)c2ccncc2)ccc2cccnc12 (stereo not drawn) | 1.39 µM |
| [O-][n+]1cccc2c(Br)cc(Br)c(O)c21 | 2.77 µM |
| CCCCC(=O)NC(=S)NNC(=O)CCc1ccccc1 | 23 µM |
| Cc1oc2c(c1C(=O)c1ccccc1)C(=O)C(=O)c1ccccc1-2 | 3.48 µM |
| CCCC1CCC(c2ccc(/C(N)=N/O)cc2)CC1 (stereo not drawn) | 24 µM |
| Oc1ccccc1-c1cc(-c2ccc3c(c2)OCCO3)n[nH]1 | 9.9 µM |
| CN1CCN(C(=O)c2cc(COc3ccc(F)cc3Cl)on2)CC1c1ccccc1 (stereo not drawn) | 33.5 µM |

| Compound | AC35 |
| --- | --- |
| COC(=O)C1=C(C)NC(C)=C(C(=O)OCC(C)C)C1c1ccccc1[N+](=O)[O-] (stereo not drawn) | 4.63 µM |
| O=C1c2ccccc2-n2c1nc1ccccc1c2=O | 0.0617 µM |
| O/N=C/c1ccccc1OCc1ccc(Cl)cc1 | 34.4 µM |
| O=c1c(CO)cc(CO)cc(CO)c1O | 20.8 µM |
| Cc1ccc(O)c(C2=NNC(c3ccc(Cl)cc3)C2)c1 (stereo not drawn) | 3.59 µM |
| CC1CCc2c(C(=O)Nc3ccccn3)csc2C1 (stereo not drawn) | 35.6 µM |
| COc1ccc(N(C)S(=O)(=O)c2ccc(Cl)c(C(=O)NNC(=O)c3ccccc3O)c2)cc1 | 35.8 µM |
| Nc1cc2nc3ccccc3oc-2cc1=O | 1.01 µM |
| COc1cccc(/C=N/Nc2ncnc(Cl)c2N)c1O | 0.942 µM |
| COc1cc(/C=N/O)cc(Br)c1OCc1cccc(Cl)c1 | 28.1 µM |
| Cc1nc(-c2ccccn2)nc(N(C)c2ccccc2)c1Cl | 6.1 µM |
| CC(=O)NC(c1ccc(C)cc1)c1cc([N+](=O)[O-])c2cccnc2c1O (stereo not drawn) | 11.2 µM |
| CCC(NC(=S)NCc1ccc(F)cc1)c1ccc(C(C)C)cc1 (stereo not drawn) | 11.3 µM |
| S=C(NCc1ccco1)Nc1ccc(Oc2ccc(Cl)cc2)cc1 | 16.8 µM |
| O=C(Nc1nnc(-c2cccs2)o1)c1cccc(Oc2ccccc2)c1 | 19.4 µM |
| COc1cc2cnc(-c3ccccc3)c(C(=O)c3ccc(F)cc3)c2cc1OC | 21.6 µM |
| C=CCOC(Cn1ccnc1)c1ccc(Cl)cc1Cl (stereo not drawn) | 7.38 µM |
| COc1ccc2[nH]c(=O)c(CN(Cc3cccnc3)C(=O)Nc3ccccc3)cc2c1 | 15.7 µM |
| C=CCNC(=S)N1CCC(Cc2ccccc2)CC1 | 28 µM |
| Cc1c(C2(O)CCCCC2)[nH]c2ccc(C(F)(F)F)cc12 | 17.3 µM |
| Nc1nc(-c2ccc(Oc3ccccc3)cc2)cs1 | 30.3 µM |
| CC(/C=N/n1c(COc2ccccc2)n[nH]c1=S)=C\c1ccccc1 | 42.2 µM |
| CC1=CC(=O)C=C(C)C1=NOS(=O)(=O)c1ccccc1 | 5.53 µM |
| CC[n+]1c(/C=C/C=C/c2ccc(N(C)C)cc2)sc2ccccc21 | 2.68 µM |
| Cc1ccc2oc(-c3ccccc3)c(C(=O)O)c(=O)c2c1 | 20.3 µM |

| Compound | AC35 |
| --- | --- |
| COc1ccc(O)c(C(=O)CC(=O)c2ccccc2C)c1 | 13.9 µM |
| O=C(c1ccccc1)N1C(=O)C(c2ccccc2)Oc2ccccc21 (stereo not drawn) | 37.1 µM |
| O=C(CC1CC2CCC1C2)Nc1nc(-c2ccccn2)cs1 (stereo not drawn) | 3.99 µM |
| O=S1OC(c2ccccc2)c2cc(Cl)ccc21 (stereo not drawn) | 16.8 µM |
| CCCc1cc(C(N)=O)c(NC(=O)c2cc(C)on2)s1 | 39.7 µM |
| CCc1ccc(CN(C)C(=O)c2cc(COc3cccc(C(F)(F)F)c3)on2)nc1 | 29.1 µM |
| O=P(Nc1cccnc1)(Oc1ccccc1Cl)Oc1ccccc1Cl | 37.1 µM |
| CCC(C)Sc1cccc(-c2nc3ccccn3c2NCc2ccccc2)c1 (stereo not drawn) | 12.1 µM |
| O=C(Nc1ccc(Br)c(C(F)(F)F)c1)c1ccccc1 | 10.7 µM |
| Cc1nc(SCc2ccc(OCCC(C)C)cc2)n[nH]1 | 13.1 µM |
| CCC(C)n1ncn(-c2ccc(N3CCN(c4ccc(OCC5COC(Cn6cncn6)(c6ccc(Cl)cc6Cl)O5)cc4)CC3)cc2)c1=O (stereo not drawn) | 3.81 µM |
| CC(C)(C)n1nc(Cc2cccc3ccccc23)c2c(N)ncnc21 | 23.6 µM |
| O=C1Nc2c(Br)cccc2C1=O | 30.5 µM |
| Cc1ccc(S(=O)(=O)Nc2ccc(O)c3cccnc23)cc1 | 6.27 µM |
| O=c1cc(CSc2ccc(Cl)cc2)nc(-c2ccccn2)[nH]1 | 2.3 µM |
| CC/C(=N/NC(=O)c1ccccc1O)c1c(C)[nH]n(-c2ccccc2)c1=O | 28.1 µM |
| COc1ccccc1-c1sc2cc3c(cc2c1C#Cc1cncn1C)OCO3 | 2.96 µM |
| O=C(/C(=N/N=C/c1ccc(O)c(O)c1O)c1ccccc1)c1ccccc1 | 3.7 µM |
| O=c1c2ccccc2nc(-c2cccc(Cl)c2)n1O | 28.2 µM |
| CCc1ccc(OCc2n[nH]c(=S)n2Cc2ccccc2)cc1 | 34.4 µM |
| CCCCCOc1ccc(CSc2n[nH]c(C)n2)cc1 | 8.7 µM |
| O=S(=O)(c1ccc(Cl)cc1)N1CCC2(CC1)OCCN2S(=O)(=O)c1cccs1 | 20 µM |
| CCCCCCCn1c(=O)c(C(=O)OC)c(N)c2ccccc21 | 4.22 µM |
